# Assay results published in US20230263459A1, “DEVICE AND METHOD FOR PREVENTING SUDDEN DEATH AND PROTECTING OXYGEN STATUS DURING SEIZURE ACTIVITY” (priority 2020, published 2023).
# Entries after “also recorded” stand apart in the source; their conditions may differ. Where a name gives a salt, the structure may show the parent alone. Read-outs that look alike come from different tables or passages of the source.
# Key:
# [1] = tested on: audiogenic seizure prone mice; settings: cited from earlier work
# [2] = tested on: rat model of complete airway occlusion; settings: for number of breath attempts during occlusion: FIG. 7D, hydrochloride; for time to respiratory arrest (mean): air control 53.6
# Description: Adult male Sprague Dawley rats (AGE median=63, mean=88 days; WEIGHT median=306, mean=329 grams; Envigo Chicago, Ill.) were housed in AAALAC-accredited facilities and maintained on a 12 hour light:dark cycle with a temperature of 23° C. and humidity of 55%, monitored daily, and had unrestricted access to water and food. Urethane (1.5 g/kg ip) was used for anesthesia in all animals.
# ECG RECORDINGS—Limb-lead ECG was recorded using copper strips coated with conductive gel wrapped around both forelimbs and the base of the tail. Signals were amplified and filtered to pass 1 Hz to 1 kHz (Model 1800 AC amplifier with headstages; A-M Systems, Sequim, Wash.) and digitized at 2 kHz (Microl401 controlled by Spike 2 software; Cambridge Electronic Design, Cambridge, UK). Rhythm was assessed by reviewing P waves and associated QRS complexes for variations in wave shape, beat-to-beat intervals, and atrial-ventricular coupling.
# The raw pulsatile waveform of the pulse oximeter was digitized (2 kHz) with other signals.
# INSPIRATORY AIRWAY PRESSURES—A pressure transducer (CyQ, Columbus Instruments, Columbus, Ohio) was connected to the sidearm of a T-shaped tracheal tube (see infra). Inspiratory pressures during complete airway occlusion were measured relative to those observed during baseline breathing. Signals were digitized along with other signals recorded at the same time.
# TRACHEAL IMPLANTS—A T-shaped tracheal tube was placed through an incision between cartilaginous rings of the trachea after the trachea was exposed in the neck. The distal arm was “sealed” in the trachea with suture around the trachea, compressing it against the outside wall of the implant.
# CONTROLLED AIRWAY OCCLUSION—Obstructive apnea was produced with controlled airway occlusion. The exterior arm in the straight path with the implanted arm served breathing or could be occluded. A pressure transducer on the tracheal tube sidearm recorded forces developed during either normal breathing with the tracheal tube open to the atmosphere or during complete closure of the open port.
# Injected volumes were 12.5 ml/kg and averaged 4.25 f 1.00 ml/animal (mean, standard deviation). Fluoxetine hydrochloride (cat #1279804) was obtained from Sigma Aldrich Inc. (St. Louis, Mo.).
# Gas was delivered at ˜4 liters/min. In all animals, the occlusion was left in place until 10 seconds after the point of respiratory arrest, which was defined as the time of the peak of the last breath attempt.
# [3] = tested on: audiogenic seizure-prone mice; settings: oxygen, FIG. 3
# Description: In audiogenic seizure-prone mice, seizures are stereotyped and consist of a running phase, a clonic phase, and a tonic phase that included hindlimb extension.
# [4] = fluoxetine 25 mg/kg IP vs saline
compound,measurement,setting,value
"CNCCC(Oc1ccc(C(F)(F)F)cc1)c1ccccc1 (centres unmarked) [fluoxetine, Fluoxetine hydrochloride]",protection against death,"[1]; multiple strains of audiogenic seizure prone mice (Faingold 2011, 2014; Zeng 2015)",protect against death
same,attempts needed to effect resuscitation after respiratory arrest,"[2]; SSRI group vs saline, bolus gas delivery",required more attempts on average
same,increase in the time to respiratory arrest,[2]; fluoxetine 25 mg/kg IP one hour post-injection vs saline,28%
same,rate of desaturation during occlusion,[2]; [4],did not significantly alter
same,inspiratory forces generated during breath attempts while occluded,"[2]; fluoxetine 25 mg/kg IP vs saline, FIG. 7B",no apparent differences
same,number of breath attempts during occlusion,[2]; [4],no difference
same,number of breath attempts during occlusion,"[2]; fluoxetine 25 mg/kg IP vs saline, listed as Fluoxetine",nearly equivalent
same,respiratory rate,"[2]; fluoxetine 25 mg/kg IP vs saline, FIGS. 7E, 7F",significantly slowed
same,time to respiratory arrest (average),"[2]; fluoxetine 25 mg/kg IP, 60 min before occlusion, n=8, saline control 49.8/49.9",63.8 s
same,minimum oxygen saturation,"[2]; fluoxetine 25 mg/kg IP, saline group 37%, not statistically significant",34%
O=O [oxygen],protection from normally fatal audiogenic seizures,"[1]; DBA/2 mice, seizures in an oxygen atmosphere (Venit 2004; Willott 1976)",protected
same,survival of animals,[1]; oxygen treatment (Venit 2004; Willott 1976),100%
same,time in tonic hindlimb extension phase,[3],unchanged
same,time to respiratory arrest,[3],prolonged
same,total seizure time,[3],unchanged
same,increase in the time to respiratory arrest,[2]; 50% oxygen/50% air 30 seconds prior to occlusion vs air,19%
same,time to respiratory arrest (mean),"[2]; 50% oxygen/50% air for 30 seconds prior to airway occlusion, n=7",63.9 s
same,number of breath attempts,[2]; 50% oxygen/50% air for 30 seconds vs air,significantly increased
same,delay in desaturation onset,"[2]; animals breathing oxygen versus air, FIG. 1C",~40 s
same,increase in the time to respiratory arrest,[2]; oxygen 30 seconds prior to occlusion vs air,52%
same,increase in the time to respiratory arrest,[2]; oxygen 5 minutes prior to occlusion vs air,65%
same,minimum pulse oximetry level,"[2]; oxygen animals, n=12, mean, standard deviation",37%±11
same,time to respiratory arrest (mean),[2]; oxygen atmosphere for 5 minutes prior to airway occlusion,88.4 s
same,time to respiratory arrest relative to room air,"[2]; oxygen enriched atmosphere vs room air, FIG. 1A",nearly doubled; also recorded: nearly twice as long
same,total number of breath attempts during complete airway closure,"[2]; oxygen prior to occlusion vs air, FIG. 1D",significantly greater
same,time to respiratory arrest (mean),"[2]; oxygen stream for only 30 seconds prior to airway occlusion (brief O2), n=10",81.6 s
same,duration of sustained high level of oxygen saturation before decline,"[2]; oxygen-breathing rat, pulse oximetry, FIGS. 2A-2B",about 30 seconds
same,time of last breath attempt (respiratory arrest) after occlusion onset,"[2]; single animal, FIG. 2A, oxygen for five minutes before occlusion, air animal 53",100 s
same,"onset of ST segment elevation, bradycardia and premature ventricular contractions post-occlusion","[2]; single animal, FIG. 2A, oxygen for five minutes before occlusion, air animal about 40",about 80 seconds
